Source: patent US20240123079A1 (Seagen Inc., priority 2021, published 2024)

Assay: In vivo cytokine assay, plasma of Renca tumor-bearing mice
Parameters: species or system mouse; IFNg production in plasma / IL-1b production in plasma / IL-6 production in plasma / IL12p70 production in plasma / IP10 production in plasma / MIP1a production in plasma / MIP1b production in plasma / TNFa production in plasma: unit not given here
Procedure: Cytokines were measured in mouse plasma harvested at 3, 6, 24, or 48 hours after treatment with compounds or ADCs using a Milliplex MAP mouse cytokine/chemokine magnetic bead panel assay kit (MCYTOMAG-70k custom 11-plex kit: MCP1, MIP1α, MIP1β, TNFα, IFNγ, IL-10, IL-12p70, IL-6, IL-1β, IP10, RANTES) and analyzed using a Luminex™ MAGPIX™ Instrument System. Values that were outside of the standard curve range (<3.2 or […]) were excluded from calculation of the mean values.

## CCn1nc(C)cc1C(=O)Nc1nc2cc(C(N)=O)cc(OC)c2n1C/C=C/Cn1c(NC(=O)c2cc(C)nn2CC)nc2cc(C(N)=O)cc(OCCCNC)c21 [Compound 12a]
0.6 mg/kg, dose #1, 24 h
  IP10 production in plasma: 381.8
  MCP-1 production in plasma: 141.5
  MIP1a production in plasma: <3.2
  MIP1b production in plasma: <3.2
  RANTES production in plasma: 46.2
  TNFa production in plasma: 5.2
0.6 mg/kg, dose #1, 48 h
  IFNg production in plasma: <3.2
  IL12p70 production in plasma: <3.2
  IL-1b production in plasma: 5.7
  IL-6 production in plasma: 1.8
  IL-10 production in plasma: <3.2
  IP10 production in plasma: 218.4
  MCP-1 production in plasma: 40.0
  MIP1a production in plasma: 10.3
  MIP1b production in plasma: <3.2
  RANTES production in plasma: 5.0
  TNFa production in plasma: <3.2
0.6 mg/kg, dose #2, 6 h
  IFNg production in plasma: 41.5
  IL12p70 production in plasma: 28.4
  IL-1b production in plasma: 5.8
  IL-6 production in plasma: 516.9
  IL-10 production in plasma: <3.2
  IP10 production in plasma: 3996.6
  MCP-1 production in plasma: 9761.2
  MIP1a production in plasma: 115.5
  MIP1b production in plasma: 837.6
  RANTES production in plasma: 621.6
  TNFa production in plasma: 16.7
1.8 mg/kg, dose #1, 3 h
  IFNg production in plasma: <3.2
  IL12p70 production in plasma: 3.1
  IL-1b production in plasma: 7.5
  IL-6 production in plasma: 4314.6
  IL-10 production in plasma: 27.3
  IP10 production in plasma: 8222.7
  MCP-1 production in plasma: 5805.3
  MIP1a production in plasma: 1052.6
  MIP1b production in plasma: 7438.6
  RANTES production in plasma: 51.2
  TNFa production in plasma: 46.4
1.8 mg/kg, dose #1, 6 h
  IFNg production in plasma: 36.4
  IL12p70 production in plasma: <3.2
  IL-1b production in plasma: 0.7
  IL-6 production in plasma: 543.0
  IL-10 production in plasma: 9.9
  IP10 production in plasma: 7589.2
  MCP-1 production in plasma: 13861.5
  MIP1a production in plasma: 172.2
  MIP1b production in plasma: 1162.7
  RANTES production in plasma: 526.2
  TNFa production in plasma: 21.2
1.8 mg/kg, dose #1, 24 h
  IFNg production in plasma: <3.2
  IL12p70 production in plasma: <3.2
  IL-1b production in plasma: 3.2
  IL-6 production in plasma: 6.8
  IL-10 production in plasma: <3.2
  IP10 production in plasma: 595.6
  MCP-1 production in plasma: 143.9
  MIP1a production in plasma: 10.3
  MIP1b production in plasma: <3.2
  RANTES production in plasma: 48.8
  TNFa production in plasma: 3.2
1.8 mg/kg, dose #1, 48 h
  IFNg production in plasma: <3.2
  IL12p70 production in plasma: <3.2
  IL-1b production in plasma: 3.2
  IL-6 production in plasma: 1.5
  IL-10 production in plasma: <3.2
  IP10 production in plasma: 223.5
  MCP-1 production in plasma: 2.0
  MIP1a production in plasma: <3.2
  MIP1b production in plasma: <3.2
  RANTES production in plasma: <3.2
  TNFa production in plasma: 3.2
1.8 mg/kg, dose #2, 6 h
  IFNg production in plasma: 80.4
  IL12p70 production in plasma: 28.4
  IL-1b production in plasma: 4.6
  IL-6 production in plasma: 1681.6
  IL-10 production in plasma: 7.7
  IP10 production in plasma: 4151.5
  MCP-1 production in plasma: 17185.9
  MIP1a production in plasma: 209.9
  MIP1b production in plasma: 1407.7
  RANTES production in plasma: 892.1
  TNFa production in plasma: 46.4
Plasma of tumor-bearing mice
  systemic pro-inflammatory cytokine (IL-6 and TNF) production: induced robust production of IL-6 and TNF
